According to patent publication US10821099B2, “Use of tradipitant in motion sickness” (Vanda Pharmaceuticals Inc., priority 2018, dated 2020):
Like-named read-outs stand apart in the source and are kept apart here. Blank lines part the entries; values can stand above or below the compound they belong to.

How the values were obtained:
[1] = tested on: vomiting due to motion sickness; conditions: crossover study; cited from earlier work
NK-3 receptor = target: T1, NK-3 receptor (Homo sapiens, UniProt P29371); test: NK-3 receptor inhibition; type: binding
T1 sequence (P29371 1-465): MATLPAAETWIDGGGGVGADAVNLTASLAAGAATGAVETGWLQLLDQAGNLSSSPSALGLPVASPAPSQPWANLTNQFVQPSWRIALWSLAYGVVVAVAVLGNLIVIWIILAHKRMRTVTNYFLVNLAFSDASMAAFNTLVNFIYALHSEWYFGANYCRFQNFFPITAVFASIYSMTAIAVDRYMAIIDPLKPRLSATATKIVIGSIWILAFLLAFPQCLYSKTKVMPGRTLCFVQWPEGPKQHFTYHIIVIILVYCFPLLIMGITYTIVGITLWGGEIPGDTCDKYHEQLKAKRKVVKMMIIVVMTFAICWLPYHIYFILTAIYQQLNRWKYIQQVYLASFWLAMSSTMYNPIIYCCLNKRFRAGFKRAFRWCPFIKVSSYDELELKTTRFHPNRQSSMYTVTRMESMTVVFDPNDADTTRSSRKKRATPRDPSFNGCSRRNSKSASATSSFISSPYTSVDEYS

NK-2 receptor = target: T2, NK-2 receptor (Homo sapiens, UniProt P21452); test: NK-2 receptor inhibition; type: binding
T2 sequence (P21452 1-398): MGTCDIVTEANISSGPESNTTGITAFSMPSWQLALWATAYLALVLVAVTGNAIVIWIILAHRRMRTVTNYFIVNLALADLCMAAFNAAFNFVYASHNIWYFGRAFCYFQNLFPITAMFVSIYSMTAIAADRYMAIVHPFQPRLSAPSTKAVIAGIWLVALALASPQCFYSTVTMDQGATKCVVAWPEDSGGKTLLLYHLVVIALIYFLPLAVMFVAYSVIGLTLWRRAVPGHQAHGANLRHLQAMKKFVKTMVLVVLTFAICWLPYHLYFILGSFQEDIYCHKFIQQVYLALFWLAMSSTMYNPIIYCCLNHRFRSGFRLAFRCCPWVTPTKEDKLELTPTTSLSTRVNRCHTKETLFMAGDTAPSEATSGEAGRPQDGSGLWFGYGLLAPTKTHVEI

[2] = Plasma concentration of tradipitant 2 hours post-dose in dogs; type: in vivo; conditions: male, beagle, dog, oral, read-out: Concentration of tradipitant in plasma, Mean (SD)
Description: (§1) All animals are dosed over a period of five (5) weeks, with each dog receiving one of five different treatments on each day of dosing. […] In cases where apomorphine is administered alone, without prior treatment with tradipitant or aprepitant, apomorphine is given at approximately the same time as when given in combination with tradipitant or aprepitant.

NK-1 receptor [3] = target: T3, NK-1 receptor (Homo sapiens, UniProt P25103); test: [125I] substance P binding to the NK-1 receptor, IM-9 human cell membrane binding; parameters: NK-1 receptor expressed by IM-9 cells; endogenous in cells; host or cells: IM-9 human cells (membranes); conditions: Table 1
T3 sequence (P25103 whole entry): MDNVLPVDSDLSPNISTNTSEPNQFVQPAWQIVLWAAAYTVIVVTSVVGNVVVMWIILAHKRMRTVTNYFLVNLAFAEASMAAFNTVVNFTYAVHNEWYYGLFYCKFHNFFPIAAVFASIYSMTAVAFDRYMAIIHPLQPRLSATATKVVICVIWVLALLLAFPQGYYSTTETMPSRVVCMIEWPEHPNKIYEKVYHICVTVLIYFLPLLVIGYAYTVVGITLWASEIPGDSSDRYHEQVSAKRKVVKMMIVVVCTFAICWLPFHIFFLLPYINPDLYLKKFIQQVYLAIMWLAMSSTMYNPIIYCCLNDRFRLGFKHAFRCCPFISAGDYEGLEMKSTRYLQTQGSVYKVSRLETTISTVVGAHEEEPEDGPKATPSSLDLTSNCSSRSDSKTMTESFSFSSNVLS

[4] = tested on: panel of 74 other receptors, enzymes, and ion channels; test: Binding panel of 74 other receptors, enzymes and ion channels
NK-1 receptor [5] = target: T3, NK-1 receptor; test: SP-induced mobilization of intracellular calcium in U373 cells; type: cell-based; parameters: mobilization of intracellular calcium in U373 cells; endogenous in cells; host or cells: U373 cells
[6] = tested on: apomorphine-induced emesis; test: Emetic challenge study (apomorphine-induced emesis) in beagle dogs; type: in vivo, beagle dog; conditions: each dose tested (0.3, 1.0, and 3.0 mg/kg)
Description: Each animal is administered a different dose on a particular dosing day, so that each dose of tradipitant, aprepitant, and apomorphine alone is represented. Over the five (5) weeks of the study, each animal receives each of the treatments, but only one per week. The purpose of this study is to determine if tradipitant suppresses apomorphine-induced emesis.
as §1
All dogs are fasted overnight prior to each treatment day and then fed approximately one (1) hour after oral dosing (approximately one (1) hour prior to administration of apomorphine). Individual doses are adjusted weekly for changes in body weight.
The dose regimen consists of a 5×5 Latin square design, in which each subject receives 1 dose or dose combination per week (6 day washout) as shown in Table 3 below.

[7] = tested on: NK-1 agonist (GR73632)-induced vocalization; test: GR73632-induced vocalization in guinea pigs; type: in vivo, guinea pig
Description: Male Dunkin/Hartley guinea pigs (200 to 250 grams) are orally administered either vehicle or an NK-1 antagonist. Approximately 45 minutes later (for dose response studies), the animals are anesthetized and 0.1 nmol of GR73632 (SP analog) in a vehicle volume of 5 μl is injected into the cerebral ventricle at the intersection of bregma and the midline of the skull. Animals are placed in a dark testing chamber located inside of a sound attenuation cubicle and vocalizations are recorded for 30 minutes following recovery from anesthesia. The time spent vocalizing is quantified for each animal. In the duration of action study, 0.1 mg/kg of tradipitant or vehicle solution is administered orally and then 2, 4, or 7 hours later, 0.1 nmol of GR73632 is administered into the cerebral ventricle as described above. Vocalizations are recorded and quantified as indicated above. Vehicle solutions are either CMC (FIG. 4 data) or an ethanol/emulphor solution (FIGS. 5 and 6). Data is analyzed using one-tailed t-tests.

[8] = tested on: NK-1 agonist (GR73632)-induced foot-tapping behavior; test: NK-1 agonist (GR73632, icv)-induced foot-tapping behavior in gerbils; type: in vivo, Mongolian gerbil
Description: Immediately after injection, animals are placed individually into isolated chambers with pressure-sensitive velocimeter platform floors (San Diego Instruments acoustic startle apparatus) that detect and quantify vibration. The San Diego Instruments “SR” DOS-based computer program is used on a PC to record the number of foot-taps over the following 6 to 10 minutes, beginning 30 seconds after the floor is lightly tapped. Raw data are converted with a Microsoft® Excel® (Microsoft® and Excel® are registered trademarks of Microsoft Corp., Redmond, Wash.) macro that determines the number of events over threshold (125) in each 250-millisecond time bin over the 5.5 minutes following onset of observation. The total number and average intensity of events over the duration is determined. Total number of taps is analyzed with one-way ANOVA and post-hoc Dunnett's test using JMP statistical software. A dose-response curve (with doses of 0.3, 1, 3 and 10 pmols, icv) is initially generated with the NK-1 agonist GR73632. […] NK-1 antagonists are tested for their ability to attenuate GR73632-induced foot tapping. NK-1 antagonists are administered (po) via oral feeding tube at doses and time points specified in each experiment. All animals receive only one dose of NK-1 antagonists in all tests. NK-1 antagonists are administered at multiple doses (at least 3; one dose per animal) and response to GR73632 is measured. NK-1 receptor antagonists are administered at multiple pre-treatment times (one administration per animal) including at 0.5, 1, 2, 4, 7, 16, and 24 hours prior to GR73632 injection. GR73632 (Peninsula Labs, CA) is dissolved in saline. Tradipitant is dissolved in 1% CMC/0.5% SLS/0.085% PVP vehicle.

Compound: COc1ccc(C(C)(C)C)cc1CN[C@H]1C2CCN(CC2)[C@H]1C(c1ccccc1)c1ccccc1 [Maropitant]
- dogs in which the occurrence of vomiting was reduced as compared to placebo [1]: over 75%

- inhibition at the NK-3 receptor (NK-3 receptor): no significant inhibition
- inhibition at the NK-2 receptor (NK-2 receptor): no significant inhibition
- concentration at 2 h ([2]; 0.3 mg/kg, 0.3 mg/kg oral): 57.9 ng/mL
- concentration at 2 h ([2]; 1 mg/kg, 1.0 mg/kg oral): 133 ng/mL
- concentration at 2 h ([2]; 3 mg/kg, 3.0 mg/kg oral): 300 ng/mL
- Ki (NK-1 receptor [3]): 0.062 nM
- activity in panel of 74 additional receptors, enzymes, and ion channels including NK-2 and NK-3 receptors [4]: No significant activity
- inhibition of binding ([4]; test concentration of 1 μM): ≤ 50%
- Kb (NK-1 receptor [5]): 0.095 nM
Compound: O=C(c1ccccc1Cl)c1cccnc1-c1nnn(Cc2cc(C(F)(F)F)cc(C(F)(F)F)c2)c1-c1ccncc1 [Tradipitant, {2-[1-(3,5-bistrifluoromethylbenzyl)-5-pyridin-4-yl-1H-[1,2,3]triazol-4-yl]-pyridin-3-yl}-(2-chlorophenyl)-methanone]
- efficacy against apomorphine-induced emesis [6]: effective against apomorphine-induced emesis
- suppression of agonist-induced vocalization at 7 hours ([7]; 0.1 mg/kg oral, 7 hours after administration): significantly active
- duration of activity ([7]; administered orally): exceeds 7 hours
- inhibitory activity on vocalization at and below 0.1 mg/kg ([7]; at and below 0.1 mg/kg oral, FIG. 6): retains significant inhibitory activity
- inhibition of agonist-induced vocalization ([7]; oral doses of 10, 1.0, 0.1 and 0.05 mg/kg (each p<0.001), FIG. 4): significant inhibition
- minimum effective dose (MED), inhibition of vocalization ([7]; oral, p<0.001 compared to controls): 0.025 mg/kg
- time after administration up to which foot-tapping is significantly inhibited ([8]; 0.1 mg/kg, po): up to 7 hours
- effect on foot-tapping by 16 hours after administration ([8]; 0.1 mg/kg, po, 16 hours): significantly diminished
- inhibition at 1 mg/kg ([8]; Meriones unguiculatus, po, 1 mg/kg, 16 hours after administration): > 50%
- ED50 ([8]; Meriones unguiculatus, oral, 2 hours after administration, GR73632 3 pmol icv, read-out: ED50, inhibition of foot-tapping behavior): 0.03 ± 0.004 mg/kg

Compound: C[C@@H](O[C@H]1OCCN(Cc2n[nH]c(=O)[nH]2)[C@H]1c1ccc(F)cc1)c1cc(C(F)(F)F)cc(C(F)(F)F)c1 [Aprepitant, reference compound]
- time after administration up to which foot-tapping is inhibited ([8]; 1 mg/kg): up to 24 hours
